Measured values reported in PubChem BioAssay AID212 (DTP/NCI, 2004).
Several values for one entry are separate records, joined by “and”; a condition that tells them apart may be missing. Equal values may be shown once. Results filed as inconclusive are left out.

Tested on: BDF1 mice, colon carcinoma 38 sc, T/C %
Assay: NCI In Vivo Anticancer Drug Screen. Data for tumor model Colon Carcinoma 38 (subcutaneous) in B6D2F1 (BDF1) mice
Conditions: endpoint: median tumor weight (est.), higher = larger tumour
In short: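 Ratio of survival or tumor size, compound-treated animals relative to vehicle controls, in tumor-bearing mice.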

[1] = dose: 50.0 mg/kg/injection, schedule: Q07DX002 (ip), vehicle: saline with Tween-80
[2] = dose: 100.0 mg/kg/injection, schedule: Q07DX002 (ip), vehicle: saline with Tween-80
[3] = dose: 200.0 mg/kg/injection, schedule: Q07DX002 (ip), vehicle: saline with Tween-80

What does the source list for `NC(=S)N/N=C\c1ncccc1OCc1cccc(N)c1`?
T/C (dose: 25.0 mg/kg/injection, schedule: Q07DX002 (ip), vehicle: distilled water + Tween-80): 80 % of control; T/C (dose: 50.0 mg/kg/injection, schedule: Q07DX002 (ip), vehicle: distilled water + Tween-80): 79 % of control; T/C (dose: 100.0 mg/kg/injection, schedule: Q07DX002 (ip), vehicle: distilled water + Tween-80): 78 % of control; T/C (dose: 200.0 mg/kg/injection, schedule: Q07DX002 (ip), vehicle: distilled water + Tween-80): 71 % of control; T/C (dose: 400.0 mg/kg/injection, schedule: Q07DX002 (ip), vehicle: distilled water + Tween-80): 80 % of control

How did the T/C (dose: 225.0 mg/kg/injection, schedule: Q07DX002 (ip), vehicle: saline) turn out when `CC(=O)N(C)C` was run?
The T/C was 123 % of control.

What about the T/C (dose: 900.0 mg/kg/injection, schedule: Q07DX002 (ip), vehicle: saline) of the same molecule?
Its T/C is 111 % of control and 100 % of control.

What about the T/C (dose: 1800.0 mg/kg/injection, schedule: Q07DX002 (ip), vehicle: saline) of the same molecule?
The T/C was 62 % of control and 84 % of control.

What about the T/C (dose: 3600.0 mg/kg/injection, schedule: Q07DX002 (ip), vehicle: saline) of the same molecule?
Its T/C is 46 % of control and 65 % of control.

What does the source list for `O=C1NC(O)c2ccccc2O1` (stereo not drawn)?
T/C (dose: 25.0 mg/kg/injection, schedule: Q07DX002 (ip), vehicle: saline with Tween-80): 93 % of control; T/C (dose: 25.0 mg/kg/injection, schedule: Q07DX002 (ip), vehicle: suspension in saline): 64 % of control; T/C [1]: 90 % of control; T/C (dose: 50.0 mg/kg/injection, schedule: Q07DX002 (ip), vehicle: suspension in saline): 113 % of control and 93 % of control; T/C [2]: 75 % of control; T/C (dose: 100.0 mg/kg/injection, schedule: Q07DX002 (ip), vehicle: suspension in saline): 60 % of control and 70 % of control; T/C [3]: 69 % of control; T/C (dose: 400.0 mg/kg/injection, schedule: Q07DX002 (ip), vehicle: saline with Tween-80): 82 % of control

With `Nc1ncnc2c1ncn2C1OC(COP(=O)(O)O)C(O)C1O` (stereo not drawn) as the molecule, how does the T/C (dose: 12.5 mg/kg/injection, schedule: Q07DX003 (ip), vehicle: water) read?
The T/C was 79 % of control.

And the T/C (dose: 25.0 mg/kg/injection, schedule: Q07DX003 (ip), vehicle: water)?
The T/C was 70 % of control.

What about the T/C (dose: 50.0 mg/kg/injection, schedule: Q07DX003 (ip), vehicle: water) of the same molecule?
The T/C was 60 % of control.

What about the T/C (dose: 80.0 mg/kg/injection, schedule: Q07DX002 (ip), vehicle: water) of the same molecule?
Its T/C is 81 % of control.

What about the T/C (dose: 100.0 mg/kg/injection, schedule: Q07DX003 (ip), vehicle: water) of the same molecule?
Its T/C is 95 % of control.

What about the T/C (dose: 160.0 mg/kg/injection, schedule: Q07DX002 (ip), vehicle: water) of the same molecule?
The T/C was 70 % of control.

What about the T/C (dose: 200.0 mg/kg/injection, schedule: Q07DX002 (ip), vehicle: saline) of the same molecule?
Its T/C is 94 % of control.

And the T/C (dose: 200.0 mg/kg/injection, schedule: Q07DX003 (ip), vehicle: water)?
Its T/C is 118 % of control.

And the T/C (dose: 320.0 mg/kg/injection, schedule: Q07DX002 (ip), vehicle: water)?
Its T/C is 80 % of control.

What about the T/C (dose: 400.0 mg/kg/injection, schedule: Q07DX002 (ip), vehicle: saline) of the same molecule?
Its T/C is 89 % of control.

And the T/C (dose: 400.0 mg/kg/injection, schedule: Q07DX003 (ip), vehicle: water)?
The T/C was 56 % of control.

What about the T/C (dose: 640.0 mg/kg/injection, schedule: Q07DX002 (ip), vehicle: water) of the same molecule?
Its T/C is 86 % of control.

And the T/C (dose: 1600.0 mg/kg/injection, schedule: Q07DX002 (ip), vehicle: saline)?
The T/C was 77 % of control.

What about the T/C (dose: 3200.0 mg/kg/injection, schedule: Q07DX002 (ip), vehicle: saline) of the same molecule?
The T/C was 50 % of control.

With `CC(C)=CCNc1ncnc2c1ncn2C1OC(CO)C(O)C1O` (stereo not drawn) as the molecule, how does the T/C (dose: 12.5 mg/kg/injection, schedule: Q07DX002 (ip), vehicle: saline with Tween-80) read?
Its T/C is 61 % of control.

What about the T/C (dose: 12.5 mg/kg/injection, schedule: Q07DX002 (ip), vehicle: saline) of the same molecule?
Its T/C is 102 % of control.

What about the T/C (dose: 25.0 mg/kg/injection, schedule: Q07DX002 (ip), vehicle: saline) of the same molecule?
The T/C was 89 % of control.

What about the T/C [1] of the same molecule?
The T/C was 96 % of control.

And the T/C [2]?
The T/C was 44 % of control.

What about the T/C (dose: 100.0 mg/kg/injection, schedule: Q07DX002 (ip), vehicle: saline) of the same molecule?
The T/C was 97 % of control.

And the T/C [3]?
The T/C was 75 % of control.
